Assay results published in US20230373952A1, “LACTAM COMPOUNDS AS Kv1.3 POTASSIUM SHAKER CHANNEL BLOCKERS” (D.E. Shaw Research, LLC, priority 2020, published 2023).
Like-named read-outs stand apart in the source and are kept apart here.

What was measured:
Kv1.3 potassium channel = target: T1, Kv1.3 potassium channel (Homo sapiens, UniProt P22001); assay: Kv1.3 potassium channel blocker activity, automated whole-cell patch clamp (Patchliner); format: cell-based; details: whole-cell current inhibition, Hill fit
T1 construct: expressed in transfected cells
T1 sequence (P22001 whole entry): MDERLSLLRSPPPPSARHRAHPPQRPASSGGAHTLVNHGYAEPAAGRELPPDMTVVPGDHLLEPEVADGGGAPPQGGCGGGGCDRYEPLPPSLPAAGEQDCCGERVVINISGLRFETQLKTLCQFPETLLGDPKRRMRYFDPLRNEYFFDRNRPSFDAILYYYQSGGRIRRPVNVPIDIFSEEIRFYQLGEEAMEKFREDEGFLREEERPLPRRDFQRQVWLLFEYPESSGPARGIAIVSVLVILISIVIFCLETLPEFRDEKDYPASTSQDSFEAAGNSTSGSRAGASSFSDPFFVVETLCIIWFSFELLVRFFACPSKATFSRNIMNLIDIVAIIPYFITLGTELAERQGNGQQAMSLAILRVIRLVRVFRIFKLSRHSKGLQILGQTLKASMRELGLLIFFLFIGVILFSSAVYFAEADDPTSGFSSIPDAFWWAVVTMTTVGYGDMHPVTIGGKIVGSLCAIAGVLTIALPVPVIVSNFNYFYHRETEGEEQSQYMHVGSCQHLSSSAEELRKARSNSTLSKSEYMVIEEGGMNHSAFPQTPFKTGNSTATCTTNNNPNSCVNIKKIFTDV
Description: CHO-K1 cells stably expressing Kv1.3 were grown in DMEM containing 10% heat-inactivated FBS, 1 mM sodium pyruvate, 2 mM L-glutamine and G418 (500 μg/ml).
The currents were evoked by applying 100 ms depolarizing pulses from −90 mV (holding potential) to +40 mV were applied with 0.1 Hz frequency. […] 10-second breaks were used between pulse trains (see Table H below).
Passive leak currents were subtracted online using a P/4 procedure (HEKA Elektronik Dr. Schulze GmbH). […] Total compound incubation time before the next pulse train was not longer than 10 seconds. Peak current inhibition was observed during compound equilibration.

hERG channel [1] = target: T2, hERG channel (Homo sapiens, UniProt Q12809); assay: cell-based
T2 sequence (Q12809 whole entry): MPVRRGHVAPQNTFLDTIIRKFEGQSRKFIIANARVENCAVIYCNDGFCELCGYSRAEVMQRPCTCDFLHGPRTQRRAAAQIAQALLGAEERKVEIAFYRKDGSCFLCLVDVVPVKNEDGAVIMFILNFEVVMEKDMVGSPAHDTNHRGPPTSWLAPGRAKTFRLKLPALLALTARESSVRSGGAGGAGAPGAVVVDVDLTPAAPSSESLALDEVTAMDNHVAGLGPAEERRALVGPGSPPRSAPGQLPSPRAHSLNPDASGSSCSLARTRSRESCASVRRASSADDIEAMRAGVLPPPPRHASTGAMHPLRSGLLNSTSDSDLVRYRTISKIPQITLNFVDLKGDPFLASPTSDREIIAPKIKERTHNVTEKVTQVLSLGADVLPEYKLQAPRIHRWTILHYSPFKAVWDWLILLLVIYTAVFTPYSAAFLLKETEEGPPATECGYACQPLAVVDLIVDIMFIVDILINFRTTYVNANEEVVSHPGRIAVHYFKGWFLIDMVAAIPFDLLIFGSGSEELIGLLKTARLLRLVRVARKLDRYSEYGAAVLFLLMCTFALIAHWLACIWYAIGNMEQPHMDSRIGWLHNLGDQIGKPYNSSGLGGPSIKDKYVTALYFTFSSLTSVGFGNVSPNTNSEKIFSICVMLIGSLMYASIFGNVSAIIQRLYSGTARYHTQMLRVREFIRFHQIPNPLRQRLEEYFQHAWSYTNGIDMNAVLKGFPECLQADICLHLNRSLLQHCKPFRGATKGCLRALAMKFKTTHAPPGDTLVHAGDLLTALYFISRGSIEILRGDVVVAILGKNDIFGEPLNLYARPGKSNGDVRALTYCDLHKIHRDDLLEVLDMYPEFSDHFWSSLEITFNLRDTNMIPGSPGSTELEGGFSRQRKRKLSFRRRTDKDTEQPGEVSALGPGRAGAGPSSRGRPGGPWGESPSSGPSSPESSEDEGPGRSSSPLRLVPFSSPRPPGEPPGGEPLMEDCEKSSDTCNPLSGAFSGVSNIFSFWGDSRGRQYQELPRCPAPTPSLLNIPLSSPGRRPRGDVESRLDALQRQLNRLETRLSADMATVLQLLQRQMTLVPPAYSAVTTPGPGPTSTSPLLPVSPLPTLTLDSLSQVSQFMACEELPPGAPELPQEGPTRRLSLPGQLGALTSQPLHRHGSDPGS
Description: (§1) This assay is used to evaluate the disclosed compounds' inhibition activities against the hERG channel.
(§2) CHO-K1 cells stably expressing hERG were grown in Ham's F-12 Medium with glutamine containing 10% heat-inactivated FBS, 1% penicillin/streptomycin, hygromycin (100 μg/ml) and G418 (100 μg/ml). Cells were grown in culture flasks at 37° C. in a 5% CO2-humidified incubator.
(§3) All compounds were dissolved in DMSO at 30 mM. Compound stock solutions were freshly diluted with external solution to concentrations of 30 nM, 100 nM, 300 nM, 1 μM, 3 μM, 10 μM, 30 μM and 100 μM. The highest content of DMSO (0.3%) was present in 100 μM.
(§4) The voltage protocol (see Table I) was designed to simulate voltage changes during a cardiac action potential with a 300 ms depolarization to +20 mV (analogous to the plateau phase of the cardiac action potential), a repolarization for 300 ms to −50 mV (inducing a tail current) and a final step to the holding potential of −80 mV. The pulse frequency was 0.3 Hz. Control (compound-free) and compound pulse trains for each compound concentration applied contained 70 pulses.
(§5) Whole-cell current recordings and compound application were enabled by means of an automated patch clamp platform Patchliner (Nanion). EPC 10 patch clamp amplifier (HEKA) along with Patchmaster software (HEKA Elektronik Dr. Schulze GmbH) was used for data acquisition. Data were sampled at 10 kHz without filtering. Increasing compound concentrations were applied consecutively to the same cell without washouts in between.
(§6) AUC and PEAK values were obtained with Patchmaster (HEKA Elektronik Dr. Schulze GmbH). To determine IC50 the last single pulse in the pulse train corresponding to a given compound concentration was used. Obtained AUC and PEAK values in the presence of compound were normalized to control values in the absence of compound.

hERG channel [2] = target: T2, hERG channel; assay: hERG electrophysiology, automated whole-cell patch clamp (Patchliner); details: read-out: hERG IC50; CHO-K1 cells stably expressing hERG; whole-cell current inhibition, Hill fit
Description: as §1, §2, §3, §4, §5, §6

[3] = CHO-K1 cells stably expressing Kv1.3, read-out: Kv1.3 IC50

| SMILES | IC50 (Kv1.3 potassium channel; [3]) | IC50 (hERG channel [1]) | IC50 (Kv1.3 potassium channel; Kv1.3 IC50, CHO-K1 cells stably expressing Kv1.3) | IC50 (hERG channel [2]) |
| --- | --- | --- | --- | --- |
| O=C1C[C@@H](c2c(O)ccc(Cl)c2Cl)CN1C[C@H](O)CO [Compound 30, (4S)-4-(2,3-dichloro-6-hydroxyphenyl)-1-[(2S)-2,3-dihydroxypropyl]pyrrolidin-2-one] | < 100 nM | > 100 µM |  |  |
| O=C1C[C@@H](c2c(O)ccc(Cl)c2Cl)CN1C[C@@H](O)CO [Compound 33, (4S)-4-(2,3-dichloro-6-hydroxyphenyl)-1-[(2R)-2,3-dihydroxypropyl]pyrrolidin-2-one] | < 100 nM | > 100 µM |  |  |
| NC(=O)CN1C[C@H](c2c(O)ccc(Cl)c2Cl)CC1=O [Compound 34, 2-[(4S)-4-(2,3-dichloro-6-hydroxyphenyl)-2-oxopyrrolidin-1-yl]acetamide] |  | > 100 µM | < 100 nM |  |
| O=C1C[C@@H](c2c(O)ccc(Cl)c2Cl)CN1CCCO [Compound 35, (4S)-4-(2,3-dichloro-6-hydroxyphenyl)-1-(3-hydroxypropyl)pyrrolidin-2-one] | < 10 nM | > 30 µM |  |  |
| COCCN1C[C@H](c2c(O)ccc(Cl)c2Cl)CC1=O [Compound 36, (4S)-4-(2,3-dichloro-6-hydroxyphenyl)-1-(2-methoxyethyl)pyrrolidin-2-one] | < 100 nM | > 30 µM |  |  |
| O=C1C[C@@H](c2c(O)ccc(Cl)c2Cl)CN1CCC(F)(F)F [Compound 37, (4S)-4-(2,3-dichloro-6-hydroxyphenyl)-1-(3,3,3-trifluoropropyl)pyrrolidin-2-one] | < 1000 nM | > 100 µM |  |  |
| NC(=O)CCN1C[C@H](c2c(O)ccc(Cl)c2Cl)CC1=O [Compound 40, (S)-3-(4-(2,3-dichloro-6-hydroxyphenyl)-2-oxopyrrolidin-1-yl)propanamide] | < 100 nM | > 100 µM |  |  |
| CN(C)C(=O)CCN1C[C@H](c2c(O)ccc(Cl)c2Cl)CC1=O [Compound 41, (S)-3-(4-(2,3-dichloro-6-hydroxyphenyl)-2-oxopyrrolidin-1-yl)-N,N-dimethylpropanamide] | < 100 nM | > 100 µM |  |  |
| O=C1C[C@@H](c2c(O)ccc(Cl)c2Cl)CN1CC(CO)CO [Compound 42, (4S)-4-(2,3-dichloro-6-hydroxyphenyl)-1-[3-hydroxy-2-(hydroxymethyl)propyl]pyrrolidin-2-one] | < 100 nM | > 30 µM |  |  |
| NCCCN1C[C@H](c2c(O)ccc(Cl)c2Cl)CC1=O [Compound 43, (4S)-1-(3-aminopropyl)-4-(2,3-dichloro-6-hydroxyphenyl)pyrrolidin-2-one] | < 10 nM | > 30 µM |  |  |
| COCCCN1C[C@H](c2c(O)ccc(Cl)c2Cl)CC1=O [Compound 44, (S)-4-(2,3-dichloro-6-hydroxyphenyl)-1-(3-methoxypropyl)pyrrolidin-2-one] | < 100 nM | > 10 µM |  |  |
| O=C1C[C@@H](c2c(O)ccc(Cl)c2Cl)CN1CC1(CO)CNC1 [Compound 46, (S)-4-(2,3-dichloro-6-hydroxyphenyl)-1-((3-(hydroxymethyl)azetidin-3-yl)methyl)pyrrolidin-2-one] | < 100 nM | > 100 µM |  |  |
| C[C@@H](O)CN1C[C@H](c2c(O)ccc(Cl)c2Cl)CC1=O [Compound 53, (S)-4-(2,3-dichloro-6-hydroxyphenyl)-1-((R)-2-hydroxypropyl)pyrrolidin-2-one] | < 100 nM | > 30 µM |  |  |
| C[C@H](O)CN1C[C@H](c2c(O)ccc(Cl)c2Cl)CC1=O [Compound 54, (4S)-4-(2,3-dichloro-6-hydroxyphenyl)-1-[(2S)-2-hydroxypropyl]pyrrolidin-2-one] | < 100 nM | > 30 µM |  |  |
| CC(O)(CO)CN1C[C@H](c2c(O)ccc(Cl)c2Cl)CC1=O (stereo partly drawn) [Compound 55, (4S)-4-(2,3-dichloro-6-hydroxyphenyl)-1-(2,3-dihydroxy-2-methylpropyl)pyrrolidin-2-one] | < 1000 nM | > 100 µM |  |  |
| Cn1cc(N2C[C@H](c3c(O)ccc(Cl)c3Cl)CC2=O)cn1 [Compound 56, (4S)-4-(2,3-dichloro-6-hydroxyphenyl)-1-(1-methylpyrazol-4-yl)pyrrolidin-2-one] | < 100 nM | > 100 µM |  |  |
| Cn1cc(N2CC(c3c(O)ccc(Cl)c3Cl)CC2=O)ccc1=O (centres unmarked) [Compound 57, 5-[4-(2,3-dichloro-6-hydroxyphenyl)-2-oxopyrrolidin-1-yl]-1-methylpyridin-2-one] | < 100 nM | > 10 µM |  |  |
| O=C1C[C@@H](c2c(O)ccc(Cl)c2Cl)CN1c1cn[nH]c1 [Compound 58, (S)-4-(2,3-dichloro-6-hydroxyphenyl)-1-(1H-pyrazol-4-yl)pyrrolidin-2-one] | < 100 nM | > 30 µM |  |  |
| Nc1ccc(N2C[C@H](c3c(O)ccc(Cl)c3Cl)CC2=O)cn1 [Compound 61, (S)-1-(6-aminopyridin-3-yl)-4-(2,3-dichloro-6-hydroxyphenyl)pyrrolidin-2-one] | < 100 nM | > 10 µM |  |  |

| SMILES | IC50 (Kv1.3 potassium channel; [3]) | IC50 (hERG channel [1]) | IC50 (Kv1.3 potassium channel; Kv1.3 IC50, CHO-K1 cells stably expressing Kv1.3) | IC50 (hERG channel [2]) |
| --- | --- | --- | --- | --- |
| Nc1cc(N2C[C@H](c3c(O)ccc(Cl)c3Cl)CC2=O)ccn1 [Compound 62, (S)-1-(2-aminopyridin-4-yl)-4-(2,3-dichloro-6-hydroxyphenyl)pyrrolidin-2-one] | < 100 nM | > 1 µM |  |  |
| O=C1C[C@@H](c2c(O)ccc(Cl)c2Cl)CN1c1ccncc1 [Compound 64, (S)-4-(2,3-dichloro-6-hydroxyphenyl)-1-(pyridin-4-yl)pyrrolidin-2-one] | < 100 nM | > 10 µM |  |  |
| Cn1cc(N2C[C@H](c3c(O)ccc(Cl)c3Cl)CC2=O)nn1 [Compound 65, (S)-4-(2,3-dichloro-6-hydroxyphenyl)-1-(1-methyl-1H-1,2,3-triazol-4-yl)pyrrolidin-2-one] | < 1000 nM | > 10 µM |  |  |
| Cn1cnc(N2C[C@H](c3c(O)ccc(Cl)c3Cl)CC2=O)n1 [Compound 66, (S)-4-(2,3-dichloro-6-hydroxyphenyl)-1-(1-methyl-1H-1,2,4-triazol-3-yl)pyrrolidin-2-one] | < 1000 nM | > 100 µM |  |  |
| Cc1ncc(N2C[C@H](c3c(O)ccc(Cl)c3Cl)CC2=O)s1 [Compound 67, (S)-4-(2,3-dichloro-6-hydroxyphenyl)-1-(2-methylthiazol-5-yl)pyrrolidin-2-one] | < 100 nM | > 100 µM |  |  |
| Cn1ccc(N2C[C@H](c3c(O)ccc(Cl)c3Cl)CC2=O)cc1=O [Compound 68, (S)-4-(4-(2,3-dichloro-6-hydroxyphenyl)-2-oxopyrrolidin-1-yl)-1-methylpyridin-2(1H)-one] | < 1000 nM | > 100 µM |  |  |
| O=C1C[C@@H](c2c(O)ccc(Cl)c2Cl)CN1c1cnoc1 [Compound 72, (4S)-4-(2,3-dichloro-6-hydroxyphenyl)-1-(isoxazol-4-yl)pyrrolidin-2-one] | < 1000 nM | > 100 µM |  |  |
| O=C1C[C@@H](c2c(O)ccc(Cl)c2Cl)CN1C1CC(F)(F)C1 [Compound 74, (S)-4-(2,3-dichloro-6-hydroxyphenyl)-1-(3,3-difluorocyclobutyl)pyrrolidin-2-one] | < 1000 nM | > 30 µM |  |  |
| O=C1CNCCN1CCN1C[C@H](c2c(O)ccc(Cl)c2Cl)CC1=O [Compound 75, 1-[2-[(4S)-4-(2,3-dichloro-6-hydroxyphenyl)-2-oxopyrrolidin-1-yl]ethyl]piperazin-2-one] | < 100 nM | > 30 µM |  |  |
| C[C@@H]1[C@H](c2c(O)ccc(Cl)c2Cl)CC(=O)N1C1CNC1 [Compound 82, (4S,5R)-1-(azetidin-3-yl)-4-(2,3-dichloro-6-hydroxyphenyl)-5-methylpyrrolidin-2-one] | < 100 nM |  |  | > 30 µM |
| C[C@H]1[C@H](c2c(O)ccc(Cl)c2Cl)CC(=O)N1CCCO [Compound 86, (4S,5S)-4-(2,3-dichloro-6-hydroxyphenyl)-1-(3-hydroxypropyl)-5-methylpyrrolidin-2-one] | < 100 nM | > 30 µM |  |  |
| N[C@H]1C(=O)N(C2CNC2)C[C@@H]1c1c(O)ccc(Cl)c1Cl [Compound 92, (3R,4S)-3-amino-1-(azetidin-3-yl)-4-(2,3-dichloro-6-hydroxyphenyl)pyrrolidin-2-one] | < 1000 nM | > 100 µM |  |  |
| O=C1N[C@@H](c2c(O)ccc(Cl)c2Cl)CN1CCO [Compound 99, (4S)-4-(2,3-dichloro-6-hydroxyphenyl)-1-(2-hydroxyethyl)imidazolidin-2-one] | < 100 nM | > 100 µM |  |  |
| Cn1cc(N2C[C@H](c3c(O)ccc(Cl)c3Cl)NC2=O)cn1 [Compound 100, (4S)-4-(2,3-dichloro-6-hydroxyphenyl)-1-(1-methylpyrazol-4-yl)imidazolidin-2-one] | < 100 nM | > 30 µM |  |  |
| O=C1N[C@@H](c2c(O)ccc(Cl)c2Cl)CN1C[C@H](O)CO [Compound 102, (4S)-4-(2,3-dichloro-6-hydroxyphenyl)-1-[(2S)-2,3-dihydroxypropyl]imidazolidin-2-one] | < 100 nM | > 100 µM |  |  |
| O=C1N[C@@H](c2c(O)ccc(Cl)c2Cl)CN1C[C@@H](O)CO [Compound 103, (4S)-4-(2,3-dichloro-6-hydroxyphenyl)-1-[(2R)-2,3-dihydroxypropyl]imidazolidin-2-one] | < 1000 nM | > 100 µM |  |  |
| O=C1N[C@@H](c2c(O)ccc(Cl)c2Cl)CN1CCCO [Compound 104, (4S)-4-(2,3-dichloro-6-hydroxyphenyl)-1-(3-hydroxypropyl)imidazolidin-2-one] | < 100 nM | > 100 µM |  |  |
| N[C@@H]1C(=O)N(CCO)C[C@@H]1c1c(O)ccc(Cl)c1Cl [Compound 105] | < 1000 nM | > 100 µM |  |  |
